Measured values reported in US4649200A, “Substituted pyrroles with opioid receptor activity” (Regents of the University of Minnesota, priority 1986, dated 1987).
Entries after “also recorded” stand apart in the source; their conditions may differ.

Key:
[1] = tested on: guinea pig ileal longitudinal muscle (GPI); experiment: Agonism on electrically stimulated guinea pig ileal longitudinal muscle (GPI); assay type: cell-based
Description: (§1) Ilea from guinea pigs were taken approximately 10 cm from the ileocaecal junction, and a strip of longitudinal muscle with the myenteric plexus attached was prepared by method of Rang et al., Brit. J. Phamacol., 22, 356 (1964), the disclosure of which is incorporated by reference herein. A 1 cm portion of this strip was then mounted between two platinum electrodes placed in a 10 ml organ bath and connected to an isometric transducer; contractions were recorded on a polygraph. Contractions of the ileal strip were initiated by supramaximal rectangular pulses in all preparations (80 V of 0.5 ms duration at a frequency of 0.1 Hz). Krebs bicarbonate solution containing 1.25 uM chlorpheniramine maleate was the bathing solution and was continuously bubbled with 95% O2 and 5% CO2. The organ bath was maintained at 36°-37° C. The longitudinal muscle strip was allowed to equilibrate with continuous stimulation for a minimun of 90 min. Cumulative concentration-response curves were determined after drugs were added to the bath in 10- to 50-uL amounts and washed out with two 10 ml portions of buffer after noting their maximum effects.
(§2) Compounds IIIa-IIIh and TENA were tested on the electrically-stimulated guniea pig ileal longitudinal muscle (GPI) and, where appropriate, the mouse vas deferens preparation (MVD).
(§3) ^a For ligands that are partial or pure antagonists, the highest
(§4) concentration and maximal response is given. Potencies of pure agonists
(IIIeh) are relative to morphine = 1.

[2] = target: T1, mu receptor (Cavia porcellus, UniProt A0ACM8Q262); experiment: Antagonism of morphine sulfate (mu agonist) on the GPI, IC50 ratio; assay type: cell-based, guinea pig
T1 construct: antagonism of morphine
Description: as §1

[3] = target: T2, kappa opioid receptor (Cavia porcellus, UniProt P41144); experiment: Antagonism of ethylketazocine (EK, kappa agonist) on the GPI, IC50 ratio; assay type: cell-based, guinea pig
T2 construct: a strip of longitudinal muscle with the myenteric plexus attached was prepared; from tissue; host or cells: guinea pig ileal longitudinal muscle strip with myenteric plexus
Description: as §1

[4] = target: T2, kappa opioid receptor; experiment: Antagonism of U50488H (selective kappa agonist) on the GPI, IC50 ratio; assay type: cell-based, guinea pig; settings: for GPI IC50 Ratio, U50488H: IC50 of agonist in presence of antagonist / control IC50
Description: as §1

[5] = tested on: mouse vas deferens (MVD); experiment: Agonism on the mouse vas deferens preparation (MVD); assay type: cell-based; settings: for Emax at 1 µM: Mus musculus, read-out: MVD Agonism (maximal response at highest concentration)
Description: (§5) This assay was performed according to the description by Henderson et al., Brit. J. Pharmacol., 46, 764 (1972), the disclosure of which is incorporated by reference herein. Both vasa deferentia were dissected out of mice and mounted singly through two platinum ring electrodes in a 10 ml organ bath. The bath contained Krebs bicarbonate solution that was continuously bubbled with 95% O2 and 5% CO2. The organ bath was maintained at 37° C. The tissue was attached to an isometric transducer and stimulated transmurally with rectangular pulses ([…], 1 ms duration, supramaximal voltage). Drugs were added cumulatively to the bath in 10 to 50 ul amounts and washed out after noting their maximum effect.
as §2, §3, §4

[6] = target: T3, delta opioid receptor (Mus musculus, UniProt P32300); experiment: Antagonism of DADLE (selective delta agonist) on the MVD, IC50 ratio; assay type: cell-based; settings: IC50 of agonist in presence of antagonist / control IC50
T3 construct: Both vasa deferentia were dissected out of mice; from tissue; host or cells: mouse vas deferens
Description: as §5

[7] = Mouse writhing procedure, antagonism of agonist; assay type: in vivo; settings: morphine 50 nmol s.c.; antagonist ICV
Description: (§6) Mice were treated with 50 nmol of the agonist (morphine, EK, or U50488H) subcutaneously and the antagonist was administered intracerebroventricularly (ICV).

[8] = target: T4, kappa receptors (Mus musculus, UniProt P33534); experiment: Mouse writhing procedure, antagonism of agonist; assay type: in vivo; settings: antagonist ICV
T4 construct: tested in vivo using the mouse writhing procedure; from tissue
Description: as §6

[9] = tested on: kappa-opioid receptors; experiment: Kappa-opioid antagonist selectivity (comparison of IC50 ratios, GPI and MVD); assay type: cell-based, guinea pig
Description: as §1
This assay was performed according to the description by Henderson et al., Brit. J. Pharmacol., 46, 764 (1972), the disclosure of which is incorporated by reference herein. […]

[10] = tested on: kappa receptor; settings: cited from earlier work
[11] = tested on: mu receptors; settings: cited from earlier work
[12] = antagonist 2 nM, IC50 of agonist in presence of antagonist / control IC50
[13] = antagonist 20 nM, IC50 of agonist in presence of antagonist / control IC50
[14] = Cavia porcellus, read-out: GPI Agonism (maximal response at highest concentration)

T1 sequence (A0ACM8Q262 1-400): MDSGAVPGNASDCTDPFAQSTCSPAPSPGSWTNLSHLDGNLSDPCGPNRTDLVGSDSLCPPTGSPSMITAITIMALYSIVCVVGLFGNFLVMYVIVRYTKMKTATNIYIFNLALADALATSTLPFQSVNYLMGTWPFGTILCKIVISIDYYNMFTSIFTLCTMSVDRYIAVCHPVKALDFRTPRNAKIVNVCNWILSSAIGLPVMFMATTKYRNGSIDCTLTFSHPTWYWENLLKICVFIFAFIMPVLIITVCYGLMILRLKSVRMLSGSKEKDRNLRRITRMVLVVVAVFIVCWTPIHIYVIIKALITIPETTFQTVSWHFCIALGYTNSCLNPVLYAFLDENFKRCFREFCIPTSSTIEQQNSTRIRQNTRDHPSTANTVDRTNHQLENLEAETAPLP
T3 sequence (P32300 whole entry): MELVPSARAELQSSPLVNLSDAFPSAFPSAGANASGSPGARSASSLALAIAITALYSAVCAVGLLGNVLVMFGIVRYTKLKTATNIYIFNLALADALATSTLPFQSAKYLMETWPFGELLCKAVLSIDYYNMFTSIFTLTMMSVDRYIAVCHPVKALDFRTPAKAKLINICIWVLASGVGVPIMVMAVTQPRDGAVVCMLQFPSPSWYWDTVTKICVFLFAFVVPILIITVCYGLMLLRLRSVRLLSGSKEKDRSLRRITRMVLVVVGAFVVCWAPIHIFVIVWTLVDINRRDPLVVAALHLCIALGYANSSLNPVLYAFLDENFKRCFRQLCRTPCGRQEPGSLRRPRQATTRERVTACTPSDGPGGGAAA
T2 sequence (P41144 whole entry): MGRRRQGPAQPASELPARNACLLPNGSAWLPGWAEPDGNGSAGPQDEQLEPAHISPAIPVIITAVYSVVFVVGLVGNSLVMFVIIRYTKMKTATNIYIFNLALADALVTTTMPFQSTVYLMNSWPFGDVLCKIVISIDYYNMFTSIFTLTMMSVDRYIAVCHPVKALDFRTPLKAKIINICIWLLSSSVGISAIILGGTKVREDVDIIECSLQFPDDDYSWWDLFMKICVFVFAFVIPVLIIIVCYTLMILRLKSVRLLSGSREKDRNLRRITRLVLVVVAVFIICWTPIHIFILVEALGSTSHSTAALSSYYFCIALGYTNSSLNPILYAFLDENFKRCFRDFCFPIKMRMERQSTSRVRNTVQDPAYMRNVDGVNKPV
T4 sequence (P33534 whole entry): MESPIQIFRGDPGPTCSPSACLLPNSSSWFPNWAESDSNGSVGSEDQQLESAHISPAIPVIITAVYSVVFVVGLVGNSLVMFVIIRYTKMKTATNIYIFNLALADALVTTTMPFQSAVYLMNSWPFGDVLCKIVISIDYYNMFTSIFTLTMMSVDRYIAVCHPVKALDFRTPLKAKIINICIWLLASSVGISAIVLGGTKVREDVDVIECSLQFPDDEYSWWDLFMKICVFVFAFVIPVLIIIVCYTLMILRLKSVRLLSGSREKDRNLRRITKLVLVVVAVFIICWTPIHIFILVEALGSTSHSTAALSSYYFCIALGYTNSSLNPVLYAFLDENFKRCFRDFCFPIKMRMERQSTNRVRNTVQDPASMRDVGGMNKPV

SMILES	GPI IC50 Ratio, Morphine Sulfate [2, 13]	GPI IC50 Ratio, Ethylketazocine [3, 13]	Emax at 1 µM [5] [%]	MVD IC50 Ratio, DADLE ([6]; antagonist 20 nM)	Emax at 1 µM [1, 14] [%]	GPI Agonism, potency of pure agonists relative to morphine = 1 [1]	other results
Oc1ccc2c3c1O[C@H]1c4[nH]c5c(c4C[C@@]4(O)[C@@H](C2)N(CC2CC2)CC[C@]314)C[C@@]1(O)[C@H]2Cc3ccc(O)c4c3[C@@]1(CCN2CC1CC1)[C@H]5O4 [IIIa]	4.7 ± 0.8	49.7 ± 15.6	16	2.0 ± 0.1	–	–	Emax at 0.2 µM ([1]; Cavia porcellus, @ 200 nM, read-out: GPI Agonism (maximal response at highest concentration)): 14%; GPI IC50 Ratio, Morphine Sulfate [2, 12]: 0.92 ± 0.16; GPI IC50 Ratio, Ethylketazocine [3, 12]: 8.8 ± 0.13; antagonism of U50488H in GPI, IC50 ratio values compared with EK [4]: higher IC50 ratio values were observed; GPI IC50 Ratio, U50488H ([4]; antagonist 2 nM): 11.0 ± 1.1; GPI IC50 Ratio, U50488H ([4]; antagonist 20 nM): 178 ± 18
Cn1c2c(c3c1[C@@H]1Oc4c(O)ccc5c4[C@@]14CCN(CC1CC1)[C@H](C5)[C@]4(O)C3)C[C@@]1(O)[C@H]3Cc4ccc(O)c5c4[C@@]1(CCN3CC1CC1)[C@H]2O5 [IIIb]	1.2 ± 0.3	165 ± 30	42	4.5 ± 0.7	0	–	agonist activity in GPI [1]: no agonist effect; antagonism of morphine in GPI ([2]; 20 nM): no significant antagonism of morphine was observed at 20 nM; agonist activity in MVD [5]: no agonist effect; ED50 ratio [(agonist+IIIb)/agonist control], morphine [7]: 0.85; ED50 ratio [(agonist+IIIb)/agonist control], EK ([8]; EK 50 nmol s.c.): 3.85; ED50 ratio [(agonist+IIIb)/agonist control], U50488H ([8]; U50488H 50 nmol s.c.): 15.71; kappa-opioid antagonist selectivity [9]: possesses the greatest kappa selectivity; also recorded: "pure" kappa-opioid receptor antagonist
CCn1c2c(c3c1[C@@H]1Oc4c(O)ccc5c4[C@@]14CCN(CC1CC1)[C@H](C5)[C@]4(O)C3)C[C@@]1(O)[C@H]3Cc4ccc(O)c5c4[C@@]1(CCN3CC1CC1)[C@H]2O5 [IIIc]	2.2 ± 0.7	147 ± 20	41	4.2 ± 1.1	0	–	MVD IC50 Ratio, DADLE ([6]; antagonist 2 nM): 1.8 ± 0.3
CC(=O)Oc1ccc2c3c1O[C@H]1c4[nH]c5c(c4C[C@@]4(O)[C@@H](C2)N(CC2CC2)CC[C@]314)C[C@@]1(O)[C@H]2Cc3ccc(OC(C)=O)c4c3[C@@]1(CCN2CC1CC1)[C@H]5O4 [IIId]	8.0 (2)	697 (2)	32	3.5 ± 1.3	32	–	–
COc1ccc2c3c1O[C@H]1c4[nH]c5c(c4C[C@@]4(O)[C@@H](C2)N(CC2CC2)CC[C@]314)C[C@@]1(O)[C@H]2Cc3ccc(OC)c4c3[C@@]1(CCN2CC1CC1)[C@H]5O4 [IIIe]	0.8 (2)	4 (2)	39	0.6 ± 0.1	0	–	–
CN1CC[C@]23c4c5ccc(O)c4O[C@H]2c2[nH]c4c(c2C[C@H]3[C@H]1C5)C[C@H]1[C@H]2Cc3ccc(O)c5c3[C@@]1(CCN2C)[C@H]4O5 [IIIf]	–	–	–	–	–	3.1 ± 0.4	GPI IC50 Ratio, Morphine Sulfate ([2]; compound 10 nM): 0.3 ± 0.1; GPI IC50 Ratio, Ethylketazocine ([3]; compound 10 nM): 0.5 ± 0.04
COc1ccc2c3c1O[C@H]1c4[nH]c5c(c4C[C@H]4[C@@H](C2)N(C)CC[C@]314)C[C@H]1[C@H]2Cc3ccc(OC)c4c3[C@@]1(CCN2C)[C@H]5O4 [IIIg]	–	–	–	–	–	0.2 ± 0.04	GPI IC50 Ratio, Morphine Sulfate ([2]; compound 100 nM): 0.5 ± 0.07; GPI IC50 Ratio, Ethylketazocine ([3]; compound 100 nM): 0.4 ± 0.07
CN1CC[C@]23c4c5ccc(O)c4O[C@H]2c2[nH]c4c(c2C[C@@]3(O)[C@H]1C5)C[C@@]1(O)[C@H]2Cc3ccc(O)c5c3[C@@]1(CCN2C)[C@H]4O5 [IIIh]	–	–	–	–	–	0.23 ± 0.05	GPI IC50 Ratio, Morphine Sulfate ([2]; compound 50 nM): 0.9 ± 0.2; GPI IC50 Ratio, Ethylketazocine ([3]; compound 50 nM): 0.4 ± 0.05
Oc1ccc2c3c1O[C@H]1[C@H](NCCOCCOCCN[C@@H]4CC[C@@]5(O)[C@H]6Cc7ccc(O)c8c7[C@@]5(CCN6CC5CC5)[C@H]4O8)CC[C@@]4(O)[C@@H](C2)N(CC2CC2)CC[C@]314 [TENA, reference compound]	4.20 ± 1.20	19.6 ± 2.40	–	1.2	–	–	Emax at 0.01 µM ([1]; Cavia porcellus, @ 10 nM, read-out: GPI Agonism (maximal response at highest concentration)): 10%; times more effective in antagonizing U50488H relative to morphine ([10]; U50488H vs morphine): about 27 times; times more effective against ethylketazocine relative to morphine ([10]; ethylketazocine vs morphine): about five
O=C1CC[C@@]2(O)[C@H]3Cc4ccc(O)c5c4[C@@]2(CCN3CC2CC2)[C@H]1O5 [naltrexone]	–	–	–	–	–	–	potency at mu receptors compared with kappa [11]: much greater potency at mu receptors
